{
  "source": "patent US20090220982A1",
  "about": "“COMPOSITIONS AND METHODS FOR DETERMINING NEPHROTOXICITY” (Achaogen Inc.., priority 2008, published 2009)",
  "key": {"LLC-PK1 cells": {"system": "LLC-PK1 cells", "details": "gentamicin introduced by electroporation; cited from earlier work"}, "[1]": {"assay": "14-day rat nephrotoxicity model", "source_text": "The rat in vivo assays provided information in the form of acute toxicity, changes in Blood Urea Nitrogen (BUN) and serum creatinine levels over time, as well as histopathology changes in the kidneys of animals sacrificed at the end of the study. Elevation in BUN or serum creatinine is one of the markers routinely monitored in the clinic as an indication of aminoglycoside nephrotoxicity."}, "HK-2 cells": {"system": "HK-2 cells", "assay": "HK-2 in vitro nephrotoxicity assay (CASPASEGLO caspase luminescence)", "type": "cell-based, human", "description": "An in vitro nephrotoxicity assay was conducted using the human kidney epithelial cell line, HK-2.\nHK-2 cells were cultured in KSFM, with 5 ng/mL epidermal growth factor (EGF) and 0.05 mg/mL bovine pituitary extract (BPE). Cells were maintained at sub-confluence and used to initiate the assay when they reached 80% confluence.\nDiluted compounds were added to plates. The plates were subsequently returned to the incubator overnight.\nLuminescence was detected using a plate reading luminometer.\nA human kidney proximal tubule cell line, HK-2 (ATCC #CRL-2190) is cultured in Keratinocyte-Serum Free Medium (K-SFM) (Invitrogen 17005-042) with 5 ng/mL of human recombinant epidermal growth factor (EGF) and 0.05 mg/mL Bovine Pituitary Extract (BPE). Culture medium containing EGF and/or BPE is not filtered subsequent to growth factor addition, and fresh growth factors are added to the culture medium after two weeks. The HK-2 cells are split so that they are 80% confluent on the day they need to be plated into 96 well plates. These cells are not allowed to become confluent.\nRemove the HK-2 cells from the plate using trypsin-EDTA. Wash the plate with D-PBS. Add 0.5 mL trypsin, and incubate for 1 minute at room temperature or until cells start to lift off plate. Inactivate trypsin and harvest cells by adding prewarmed culture medium (37° C.) to the plate. […]\nThaw the CASPASEGLO reagents (CASPASEGLO 3/7 Assay, Promega G8093 10×10 mL or G8092 100 mL) at room temperature. For reagent addition to plates after 31 hour compound incubation: (i) remove plates from incubator (30.5 hours after adding compounds) for approximately 30 minutes to bring to room temperature; (ii) mix CASPASEGLO reagents according to manufacturer's instructions; (iii) add 50 μL of reagent/well to 96 well plates using BioMek®FX with tips 2 mm from bottom of reservoir well (Beckman Coulter); (iv) place plates on shaker platform and shake gently for 30 seconds; (v) incubate at room temperature for 30 minutes; (vi) place plates on shaker platform and shake gently for 30 seconds; and (vii) read plate 30-60 minutes after reagents are added, Analyst™ HT (LJL Biosystems™). The settings for the Analyst™ HT are: (i) default luminescence method; (ii) luminescence height, 1.5 mm; (iii) 5 readings per well; (iv) integration time of 100000 μs; and (v) attenuator out.\nThe average luminescence values are calculated along with the standard deviation of the replicates. The concentration of the aminoglycoside tested is graphed versus the corresponding luminescence reading. The area under the curve (AUC) is calculated for each experimental compound and for gentamicin. The EC50 can then be calculated for each experimental compound and gentamicin, using methods well known in the art."}, "[2]": {"details": "cited from earlier work"}, "[3]": {"details": "co-therapy with gentamicin, guinea pigs; cited from earlier work"}, "[4]": {"details": "cited from earlier work", "remark": "listed apart in the source"}, "erythrocytes": {"system": "erythrocytes", "details": "cited from earlier work"}, "[5]": {"details": "β-thalassemia patients; cited from earlier work"}, "[6]": {"details": "patients, cited from earlier work"}, "[7]": {"system": "renal brush border membranes", "details": "in vitro; cited from earlier work"}, "[8]": {"details": "rats, cited from earlier work"}},
  "note": "Like-named read-outs stand apart in the source and are kept apart here.",
  "data": [
    {"compound": "gentamicin", "values": [
      {"measurement": "apoptosis response", "setting": "LLC-PK1 cells", "result": "dose-dependent apoptosis response at much lower gentamicin concentrations"},
      {"measurement": "rank order of relative in vivo nephrotoxicity", "setting": "[1]; 14-day rat model, Example 3, FIG. 4", "result": "followed by amikacin, neomycin, and gentamicin"},
      {"measurement": "rank order of nephrotoxicity by minimum concentration of compound that produced an increase in BUN", "setting": "[1]; 14-day rat model, six compounds, FIG. 3A", "result": "followed by apramycin, gentamicin and neomycin, compound A, and compound B"},
      {"measurement": "dose response curve of luminescence signal (induction of apoptosis) / EC50", "setting": "HK-2 cells; HK-2 cells, highest concentration tested 500 μg/mL, FIG. 2", "result": "produced a full dose response curve over the concentration range tested"},
      {"measurement": "rank order of nephrotoxicity by EC50 in the in vitro HK-2 assay", "setting": "HK-2 cells; six compounds, FIG. 3A", "result": "followed by apramycin, gentamicin and neomycin, compound A, and compound B"}
    ]},
    {"compound": "[H]/N=C(/N)N[C@H]1[C@H](O)[C@@H](O)[C@H](O[C@@H]2O[C@@H](C)[C@](O)(C=O)[C@H]2O[C@@H]2O[C@@H](CO)[C@H](O)[C@@H](O)[C@@H]2NC)[C@@H](N/C(N)=N\\[H])[C@@H]1O", "note": "[streptomycin]", "values": [
      {"measurement": "rank order of relative in vivo nephrotoxicity", "setting": "[1]; rat, in vivo", "result": "least nephrotoxic aminoglycoside tested"}
    ]},
    {"compound": "O=C(O)c1cccc(O)c1O", "note": "[DHB, 2,3-dihydroxybenzoate]", "values": [
      {"measurement": "elevations in BUN and serum creatinine after gentamicin", "setting": "[2]; rat, gentamicin treatment for eight days", "result": "reduced elevations in blood, urea, nitrogen (BUN) and serum creatinine"},
      {"measurement": "protection from gentamicin nephrotoxicity", "setting": "[2]; rats", "result": "only partial protection from gentamicin nephrotoxicity"},
      {"measurement": "shifts in auditory thresholds", "setting": "[3]", "result": "significantly lower shifts in auditory thresholds"},
      {"measurement": "solubility in aqueous solution", "setting": "[4]", "result": "poor solubility in aqueous solution"},
      {"measurement": "H2O2 induced membrane peroxidation", "setting": "erythrocytes", "result": "inhibits H2O2 induced membrane peroxidation in erythrocytes"},
      {"measurement": "toxicity of oral doses for one year", "setting": "[5]", "result": "no toxicity was observed"}
    ]},
    {"compound": "CC(=O)Oc1ccccc1C(=O)O", "note": "[aspirin]", "values": [
      {"measurement": "hearing loss versus gentamicin alone", "setting": "[6]; intravenous gentamicin and oral aspirin", "result": "significantly less hearing loss"},
      {"measurement": "side effect of aspirin treatment", "setting": "[6]", "result": "caused gastric bleeding in some patients"}
    ]},
    {"compound": "polyaspartic acid", "values": [
      {"measurement": "aminoglycoside binding to renal brush border membranes", "setting": "[7]", "result": "prevent aminoglycoside binding to renal brush border membranes"},
      {"measurement": "creatinine elevation or histopathological changes", "setting": "[8]; 16 weeks after the two week treatment", "result": "no creatinine elevation or histopathological changes"},
      {"measurement": "gentamicin concentration in kidneys versus gentamicin alone", "setting": "[8]; end of 14 day treatment, co-dosed with polyaspartic acid", "result": "five-fold higher gentamicin concentration in their kidneys"}
    ]},
    {"compound": "NCC[C@H](O)C(=O)N[C@@H]1C[C@H](N)[C@@H](O[C@H]2O[C@H](CN)[C@@H](O)[C@H](O)[C@H]2O)[C@H](O)[C@H]1O[C@H]1O[C@H](CO)[C@@H](O)[C@H](N)[C@H]1O", "note": "[amikacin]", "values": [
      {"measurement": "rank order of relative in vivo nephrotoxicity", "setting": "[1]; rat, in vivo", "result": "followed by amikacin, neomycin, and gentamicin"},
      {"measurement": "dose response curve of luminescence signal (induction of apoptosis) / EC50", "setting": "HK-2 cells", "result": "did not produce a maximal response at the highest concentration tested"},
      {"measurement": "rank order of nephrotoxicity by EC50 in the in vitro HK-2 assay", "setting": "HK-2 cells", "result": "least nephrotoxic aminoglycoside tested"}
    ]}
  ]
}
